Experimental data as given in patent publication EP4653431A1, “PYRAZOLE DERIVATIVE, AND PHARMACEUTICALLY ACCEPTABLE SALT, STEREOISOMER, PHARMACEUTICAL COMPOSITION AND USE THEREOF” (Starg (Wuhan) Pharmaceutical Technology Co., Ltd, priority 2023, dated 2024).
Counter-ions that a name gives are not always drawn. Like-named read-outs stand apart in the source and are kept apart here.

Key:
CDK1/cyclin B1 = molecular target: T1, CDK1/cyclin B1 (Homo sapiens, UniProt P06493); test: In vitro CDK1/cyclin B1 enzyme activity assay (TR-FRET); format: biochemical
T1 construct: purchased Carna Biosciences
Experimental: CDK1/cyclin B1 was purchased from Carna Biosciences. Ulight-4E-BP1 peptide, Eu-anti-phospho-tyrosine antibody, and 1X detection buffer were purchased from PerkinElmer. High-purity ATP was purchased from Promega. EDTA was purchased from Sigma. Nivo multimode plate reader (PerkinElmer) was used.
Preparation of Kinase Buffer Solution: The kinase buffer solution consisted 50 mM HEPES, 1 mM EDTA, 10 mM MgCl2, and 0.01% Brij-35, with pH of 7.4.
(§1) The stop solution was prepared by mixing 100 µL of 1 M EDTA stock solution with […] of 1X detection buffer solution and 1725 µL of distilled water.
The enzyme, Ulight-4E-BP1 peptide, ATP, and the inhibitor were diluted using the kinase buffer solution.
The Eu-anti-phospho-tyrosine antibody was diluted to a concentration of 8 nM/L using the detection buffer solution.
The final concentration of DMSO was 4%, and the experiment was set up with duplicate wells. […] The reaction system was incubated at 25 °C for 60 minutes. After the reaction, 5 µL of the stop solution was added to each well, and further reacted at 25 °C for 5 minutes to terminate the reaction. Then 5 µL of Eu-anti-phospho-tyrosine antibody dilution was added to each well, and the mixture was incubated at 25 °C for 60 minutes.
The IC50 value was obtained by fitting the data to a four-parameter curve (using log(inhibitor) vs. response -- Variable slope model in GraphPad Prism).

[1] = Pharmacokinetic study, oral and intravenous administration in mice; parameters: species or system ICR mice; details: mouse, in vivo, ICR male mice; for AUC(0-t): read-out: Area under plasma concentration-time curve AUC0-last
Experimental: This study used ICR male mice as test animals. The plasma concentrations of the test compounds and the reference compound in mice were quantitatively determined at different time points using the LC-MS/MS method following intravenous injection or oral administration to evaluate the pharmacokinetic characteristics of the test compounds in mice.
ICR mice (male, 20-30 g, 6-8 weeks old, Beijing Charles River).
A clear solution of the test compound was administered to ICR mice (fasted overnight or fed) via tail vein injection or oral gavage. For intravenous injection, blood samples (50 µL) were collected via cheek puncture at 0 h (pre-dose) and at 0.083, 0.25, 0.5, 1, 2, 4, 6, 8, and 24 h post-dose into anticoagulant tubes containing sodium heparin. The mixtures were thoroughly vortexed at 4 °C and centrifuged at 6000 rpm for 3 minutes. For oral gavage, blood samples were collected via cheek puncture at 0 h (pre-dose) and at 0.083, 0.25, 1, 2, 4, 6, 8, and 24 h post-dose into anticoagulant tubes containing sodium heparin. The mixtures were vortexed thoroughly, and centrifuged at 6000 rpm for 3 minutes. Plasma drug concentrations were determined using the LC-MS/MS method. Pharmacokinetic parameters were calculated using Phoenix WinNonlin 8.2.0 pharmacokinetic software with a non-compartmental model and linear-logarithmic trapezoidal rule.

OVCAR-3 cells = test: In vitro OVCAR-3 cell viability assay (CellTiter-Glo); format: cell-based; details: Homo sapiens, OVCAR-3, 168 h, 7 days incubation
Experimental: (§2) 1640 medium, fetal bovine serum, and penicillin/streptomycin antibiotics were purchased from Wisent. CellTiter-Glo (cell viability chemiluminescence assay reagent) was purchased from Promega. The OVCAR-3 cell line was purchased from Nanjing Cobioer Biosciences Co., Ltd. Envision multimode plate reader (PerkinElmer) was used.
OVCAR-3 cells were seeded into a white 384-well plate, with 40 µL of cell suspension containing 300 OVCAR-3 cells per well. The cell plate was incubated overnight in a CO2 incubator.
(§3) The test compound was serially diluted 5-fold using a multichannel pipette to the 8th concentration, i.e., from 2000 µM to 0.00512 µM. The experiment was set up with duplicate wells. 78 µL of culture medium was added to an intermediate plate, and 2 µL per well of the gradient-diluted compound was transferred to the corresponding position in the intermediate plate. After mixing, 10 µL per well of the mixture was transferred to the cell plate. The concentration range of the compound transferred to the cell plate was from 10 µM to 0.026 nM. The cell plate was incubated in a CO2 incubator for 7 days. Another cell plate was prepared, and the signal value was read on the day of compound addition to serve as the maximum value (Max in the equation below) for data analysis. 10 µL per well of CellTiter-Glo reagent was added to the cell plate, and the cell plate was incubated at room temperature for 10 minutes to stabilize the luminescence signal. The signal was read using the multimode plate reader.
10 µL per well of CellTiter-Glo reagent was added to the cell plate, and the cell plate was incubated at room temperature for 10 minutes to stabilize the luminescence signal. The signal was read using the multimode plate reader.
(§4) The raw data were converted to inhibition rates using the equation (Sample-Min)/(Max-Min)×100%. The IC50 value was obtained by fitting the data to a four-parameter curve (using log(inhibitor) vs. response -- Variable slope model in GraphPad Prism). Table 1 provides the inhibitory activity of the compounds of the present application against OVCAR-3 cell proliferation.

T-47D cells = test: In vitro T-47D cell viability assay (CellTiter-Glo); format: cell-based; details: Homo sapiens, T47D, 168 h, 7 days incubation
Experimental: as §2, with “T-47D” for “OVCAR-3”
T-47D cells were seeded into a white 384-well plate, with 40 µL of cell suspension containing 300 T-47D cells per well. The cell plate was incubated overnight in a CO2 incubator.
as §3, with “using the Envision multimode plate” for “using the multimode plate”
10 µL per well of CellTiter-Glo reagent was added to the cell plate, and the cell plate was incubated at room temperature for 10 minutes to stabilize the luminescence signal. The signal was read using the Envision multimode plate reader.
as §4, with “T-47D” for “OVCAR-3”

CDK2/cyclin E1 = molecular target: T2, CDK2/cyclin E1 (Homo sapiens, UniProt P24941); test: In vitro CDK2/cyclinE enzyme activity assay (TR-FRET); format: biochemical; details: CDK2/cyclin E1, 1 mM ATP, 120 min at 25 °C
T2 construct: purchased SignalChem
Experimental: CDK2/cyclin E1 was purchased from SignalChem. Ulight-4E-BP1 peptide, Eu-anti-phospho-tyrosine antibody, and 1X detection buffer solution were purchased from PerkinElmer. High-purity adenosine triphosphate (ATP) was purchased from Promega. Ethylenediaminetetraacetic acid (EDTA) was purchased from Sigma. Nivo multimode plate reader (PerkinElmer) was used.
Preparation of Kinase Buffer Solution: The kinase buffer solution consisted 50 mM HEPES, 1 mM EDTA, 10 mM MgCl2, and 0.01% Brij-35, with pH of 7.4. 2.38 g HEPES, 58 mg EDTA, 406 mg MgCl2, and 20 mg Brij-35 were added to 200 mL buffer, and the pH was adjusted to 7.4.
as §1
The enzyme, Ulight-4E-BP1 peptide, ATP, and the inhibitor were diluted using the kinase buffer solution. The Eu-anti-phospho-tyrosine antibody was diluted to a concentration of 8 nM/L using the detection buffer solution. The test compound was serially diluted 5-fold using a multichannel pipette to the 8th concentration, i.e., from 4 µM to 0.0512 nM. The final concentration of DMSO was 4%, and the experiment was set up with duplicate wells. 2.5 µL of each gradient concentration of the inhibitor, 5 µL of CDK2/cyclin E1 enzyme (10 ng), and 2.5 µL of a mixture of substrate and ATP (4 mM ATP, 100 nM Ulight-4E-BP1 peptide) were added to a microplate, resulting in a final concentration gradient of the compound from 1 µM to 0.0128 nM, with final ATP and substrate concentrations of 1 mM and 25 nM, respectively. The reaction system was incubated at 25 °C for 120 minutes. After the reaction, 5 µL of the stop solution was added to each well, and further reacted at 25 °C for 5 minutes to terminate the reaction. Then 5 µL of Eu-anti-phospho-tyrosine antibody dilution was added to each well, and the mixture was reacted at 25 °C for 60 minutes. Data were collected using the PerkinElmer Nivo multimode plate reader in TR-FRET mode (excitation wavelength: 320 nm; emission wavelengths: 615 nm and 665 nm).
The raw data were converted to inhibition rates according to the equation (Sample-Min)/(Max-Min)×100%. The IC50 value was obtained by fitting the data to a four-parameter curve (using log(inhibitor) vs. response -- Variable slope model in GraphPad Prism).

[2] = CDK1/cyclin B1, 1 mM ATP, 60 min at 25 °C, Table 1, read-out: CDK1 IC50
[3] = exact values stated in the text below Table 1, read-out: IC50 against CDK1

T1 sequence (P06493 whole entry): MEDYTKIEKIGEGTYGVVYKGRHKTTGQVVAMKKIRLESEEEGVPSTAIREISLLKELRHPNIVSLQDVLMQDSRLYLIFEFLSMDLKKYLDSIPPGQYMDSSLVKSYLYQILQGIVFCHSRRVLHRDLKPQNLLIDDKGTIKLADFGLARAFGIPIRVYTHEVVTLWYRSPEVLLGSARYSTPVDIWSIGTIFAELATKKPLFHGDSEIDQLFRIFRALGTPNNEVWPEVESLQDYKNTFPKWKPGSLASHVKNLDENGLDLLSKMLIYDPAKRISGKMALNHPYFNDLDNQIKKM
T1 sequence (P14635 whole entry partner): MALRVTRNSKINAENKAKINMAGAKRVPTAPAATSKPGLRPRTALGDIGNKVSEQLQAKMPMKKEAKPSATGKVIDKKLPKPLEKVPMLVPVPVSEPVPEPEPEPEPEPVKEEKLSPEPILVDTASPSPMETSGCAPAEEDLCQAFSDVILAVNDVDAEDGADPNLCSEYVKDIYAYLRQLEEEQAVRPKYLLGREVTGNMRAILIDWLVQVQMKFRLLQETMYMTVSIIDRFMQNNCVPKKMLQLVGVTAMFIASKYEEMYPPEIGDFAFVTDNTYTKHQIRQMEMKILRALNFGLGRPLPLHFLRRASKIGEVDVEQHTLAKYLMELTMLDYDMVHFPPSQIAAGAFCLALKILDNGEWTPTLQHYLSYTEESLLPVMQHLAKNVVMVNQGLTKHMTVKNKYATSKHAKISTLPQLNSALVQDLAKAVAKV

IC50 (CDK1/cyclin B1; [2]) [nM]	IC50 (OVCAR-3 cells) [nM]	IC50 (T-47D cells) [nM]	IC50 (CDK2/cyclin E1) [nM]	IC50 (CDK1/cyclin B1; [3]) [nM]	Compound	Vd ([1]; intravenous administration, 5 mg/Kg, read-out: Apparent volume of distribution Vdss) [L/kg]	AUC(0-t) ([1]; intravenous administration, 5 mg/Kg) [ng·h/mL]	clearance ([1]; intravenous administration, 5 mg/Kg, read-out: Clearance CL) [mL/min/kg]	half-life ([1]; intravenous administration, 5 mg/Kg, read-out: Half-life T1/2 (converted)) [h]	bioavailability ([1]; oral 30 mg/Kg vs intravenous 5 mg/Kg, read-out: Bioavailability F) [%]	AUC(0-t) ([1]; oral administration, 30 mg/Kg) [ng·h/mL]	Cmax ([1]; oral administration, 30 mg/Kg, read-out: Peak concentration Cmax) [ng/mL]	Tmax ([1]; oral administration, 30 mg/Kg, read-out: Time to peak Tmax) [h]
> 1000	75	239	7.6		C=NOCc1nn2ccnc(Nc3cc([C@H]4CC[C@@H](OC(=O)NC(C)C)C4)[nH]n3)c2c1F [Compound 4]								
> 1000	187	383	4.2	1350	CNOCc1nn2ccnc(Nc3cc([C@H]4CC[C@@H](OC(=O)NC(C)C)C4)[nH]n3)c2c1C [Hydrochloride salt of compound 3]								
> 1000	140	492	9.5	> 10000	CNOCc1nn2ccnc(Nc3cc([C@H]4CC[C@@H](OC(=O)NC(C)C)C4)[nH]n3)c2c1F [Hydrochloride salt of Compound 7]								

The remaining lines, values behind:

Compound	IC50 (CDK1/cyclin B1; [2]) [nM]	IC50 (OVCAR-3 cells) [nM]	IC50 (T-47D cells) [nM]	IC50 (CDK2/cyclin E1) [nM]	IC50 (CDK1/cyclin B1; [3]) [nM]	Vd ([1]; intravenous administration, 5 mg/Kg, read-out: Apparent volume of distribution Vdss) [L/kg]	AUC(0-t) ([1]; intravenous administration, 5 mg/Kg) [ng·h/mL]	clearance ([1]; intravenous administration, 5 mg/Kg, read-out: Clearance CL) [mL/min/kg]	half-life ([1]; intravenous administration, 5 mg/Kg, read-out: Half-life T1/2 (converted)) [h]	bioavailability ([1]; oral 30 mg/Kg vs intravenous 5 mg/Kg, read-out: Bioavailability F) [%]	AUC(0-t) ([1]; oral administration, 30 mg/Kg) [ng·h/mL]	Cmax ([1]; oral administration, 30 mg/Kg, read-out: Peak concentration Cmax) [ng/mL]	Tmax ([1]; oral administration, 30 mg/Kg, read-out: Time to peak Tmax) [h]
COCc1cc(C(=O)Nc2cc([C@H]3CC[C@@H](OC(=O)NC(C)C)C3)[nH]n2)n(C)n1 [PF-07104091, reference compound]	521	172	377			11.8	1640	50.3	2.68	76.2	7520	6320	0.25
CONCc1nn2ccnc(Nc3cc([C@H]4CC[C@@H](OC(=O)NC(C)C)C4)[nH]n3)c2c1C [Formate salt of compound 1]	> 1000	90	293	3.8	1910								
